Reference: US11850325B2, “Injectable, bioadhesive cryogel scaffolds for biomedical uses” (Northeastern University, priority 2019, dated 2023)

Conditions: mouse
Experimental: All animal experiments were reviewed and approved by Institutional Animal Care and Use Committee (ICAUC; protocol 15-1248R) at Northeastern University (Boston, MA, USA). […] Anesthesia was achieved by isoflurane (2.5%) inhalation, followed by SC buprenorphine (0.02-0.05 mg/kg) administration. After inducing anesthesia, cryogels (4% total polymer concentration (w/v), 4×4×1 mm) were implanted via injection using a sterile 18-gauge needle.
The cryogels sterilized in 70% ethanol (v/v) for 20 minutes and under UV light. Cryogels were loaded into sterile syringes and sterile 18G needles. […] After 21 days post-implantation, animals were euthanized and the cryogels were retrieved along with the surrounding tissues for histological assessment, and placed in cold DPBS. Hydrogels used for biodegradation studies were thoroughly washed in distilled water, and excess tissue was carefully removed under a dissection microscope.
After explantation, samples were fixed in paraformaldehyde (4% v/v)) for 4 h, followed by overnight incubation in 30% sucrose (30% w/v) at 4° C. Samples were then embedded in OCT and flash frozen in liquid nitrogen. Frozen samples were sectioned using a Leica Biosystems CM3050 S Research Cryostat. 14-μm cryosections were obtained and mounted in positively charged slides using DPX mountant medium (Sigma). Slides were then processed for hematoxylin and eosin staining (Sigma) according to instructions from the manufacturer. Immunohistofluorescent staining was performed on mounted cryosections as previously reported.^15 Anti-CD3 [SP7] (ab16669), anti-CD206 (ab125212), anti-F480 were used as primary antibodies, and an Alexa Fluor 594-conjugated secondary antibody (Invitrogen) was used for detection. All sections were counterstained with DAPI (Invitrogen), and visualized on an AxioObserver Z1 inverted microscope.
In vivo injectability, bioadhesion, and immunohistology. Lastly, we characterized the in vivo biodegradation of HAGM and HPD cryogels, including their interactions with native tissues via subcutaneous implantation in a murine animal model. Sterile composite cryogels (HAGM and HPD, 4×4×1 mm) were suspended in 0.2 mL of PBS and were injected subcutaneously in the backs of C57BL/6J mice. After 21 days post-implantation, the mice were euthanized prior to cryogel retrieval, along with adjacent tissue. […] Explanted samples were then flash-frozen at an optimal cutting temperature (OCT) compound, cryosectioned into 14-μm slices, and mounted onto glass slides for histological examination.

macrophage infiltration (CD206 and F480) (in vivo): some macrophages
in vivo biodegradation (visual inspection) (sc): no biodegradation
Substance: hyaluronic acid methacrylate [HAGM]
H&E staining, cell migration into explanted cryogels (in vivo): migration of predominantly non-inflammatory cells
lymphocyte/leukocyte infiltration (CD3) (in vivo): no significant local lymphocyte infiltration
tissue integration and immunocytotoxicity (in vivo, sc): high tissue integration with no immunocytoxicity
